For assay [1], the target named is T1, pseudo-kinase domain (JH2, amino-acids 536-812 with 3 surface mutations W659A, W777A, F794H) of human V617F mutant JAK2 (Homo sapiens, UniProt O60674, F794H/V617F/W659A/W777A).
T1 construct: pseudo-kinase domain (JH2, amino-acids 536-812 with 3 surface mutations W659A, W777A, F794H); His (C); Avi (biotinylated) (C); purchased BPS Bioscience 79498; host or cells: baculovirus expression system
The assay is described as follows: JAK2 LanthaScreen JH2-V617F Binding Assay. To be noted: JAK2 JH2-V617F (0.26 nM), 50 nM Fluorescent JAK2-JH2 Tracer, 1 hour at 25° C.; read-out: JH2 BIND V617F. On the procedure:
Example C. JAK2 LanthaScreen JH2-V617F Binding Assay
(§1) JAK2 JH2-V617F binding assay utilizes pseudo-kinase domain (JH2, amino-acids 536-812 with 3 surface mutations W659A, W777A, F794H) of human V617F mutant JAK2 expressed as C-terminal His-Avi-tagged, biotinylated protein in a baculovirus expression system (BPS Bioscience, Catalog #79498). The assay was conducted in black 384-well polystyrene plates in a final reaction volume of 20 μL. JAK2 JH2-V617F (0.26 nM) was incubated with compounds (100 nL serially diluted in DMSO) in the presence of 50 nM Fluorescent JAK2-JH2 Tracer (MedChem Express Catalog #HY-102055) and 0.25 nM Streptavidin-Tb cryptate (Cisbio Part #610SATLB) in assay buffer (50 mM Tris, pH=7.5, 10 mM MgCl2, 0.01% Brij-35, 0.1% BSA, 1 mM EGTA, 5% Glycerol and 5 mM DTT). Non-specific binding was accessed in the presence of 2 mM ATP. After incubation for 1 hour at 25° C., LanthaScreen signals were read on a PHERAstar FS plate reader (BMG LABTECH). Data was analyzed with IDBS XLfit and GraphPad Prism 5.0 software using a four parameter dose response curve to determine IC50 for each compound.

In assay [2] the target is T2, pseudo-kinase domain (JH2, amino-acids 536-812 with 3 surface mutations W659A, W777A, F794H) of human Wild Type JAK2 (Homo sapiens, UniProt O60674, F794H/W659A/W777A).
T2 construct: pseudo-kinase domain (JH2, amino-acids 536-812 with 3 surface mutations W659A, W777A, F794H); His (C); Avi (biotinylated) (C); purchased BPS Bioscience 79463; host or cells: baculovirus expression system
Nature of the assay: JAK2 LanthaScreen JH2-WT Binding Assay. The settings on record: JAK2 JH2-WT (0.145 nM), 50 nM Fluorescent JAK2-JH2 Tracer, 1 hour at 25° C.; read-out: JH2 BIND WT. How it is done:
Example B. JAK2 LanthaScreen JH2-WT Binding Assay
as §1, with “JH2-WT” for “JH2-V617F”, “Wild Type” for “V617F mutant”, “#79463).” for “#79498).”, “JH2-WT (0.145” for “JH2-V617F (0.26”
For orientation: Time-resolved FRET reads energy transfer from a long-lived donor to a nearby acceptor.

Assay [3] addresses T3, catalytic domain (JH1, amino acids 826-1132) of human JAK2 (Homo sapiens, UniProt O60674).
T3 construct: catalytic domain (JH1, amino acids 826-1132) of human JAK2; FLAG (N); purchased Carna Biosciences 08-445-20N; host or cells: baculovirus expression system
The assay is described as follows: JAK2 LanthaScreen JH1 Binding Assay. The settings on record: JAK2 JH1 (1.5 nM), 50 nM fluorescent JAK2-JH1 tracer, 2 hours at 25° C.; read-out: JH1 BIND. How it is done: Example A. JAK2 LanthaScreen JH1 Binding Assay
JAK2 JH1 binding assay utilizes catalytic domain (JH1, amino acids 826-1132) of human JAK2 expressed as N-terminal FLAG-tagged, biotinylated protein in a baculovirus expression system (Carna Biosciences, Product #08-445-20N). The assay was conducted in black 384-well polystyrene plates in a final reaction volume of 20 μL. JAK2 JH1 (1.5 nM) was incubated with compounds (100 nL serially diluted in DMSO) in the presence of 50 nM fluorescent JAK2-JH1 tracer and 0.5 nM Streptavidin-Tb cryptate (Cisbio Part #610SATLB) in assay buffer (50 mM Tris, pH=7.5, 10 mM MgCl2, 0.01% Brij-35, 0.1% BSA, 1 mM EGTA, 5% Glycerol and 5 mM DTT). Non-specific binding was accessed in the presence of 2 mM ATP. After incubation for 2 hours at 25° C., LanthaScreen signals were read on a PHERAstar FS plate reader (BMG LABTECH). Data was analyzed with IDBS XLfit and GraphPad Prism 5.0 software using a four parameter dose response curve to determine IC50 for each compound.

Here are results for 13 compounds from patent publication US11780840B2 (Incyte Corporation, priority 2020, dated 2023).

T1 sequence (O60674 536-812 V617F/W659A/W777A/F794H): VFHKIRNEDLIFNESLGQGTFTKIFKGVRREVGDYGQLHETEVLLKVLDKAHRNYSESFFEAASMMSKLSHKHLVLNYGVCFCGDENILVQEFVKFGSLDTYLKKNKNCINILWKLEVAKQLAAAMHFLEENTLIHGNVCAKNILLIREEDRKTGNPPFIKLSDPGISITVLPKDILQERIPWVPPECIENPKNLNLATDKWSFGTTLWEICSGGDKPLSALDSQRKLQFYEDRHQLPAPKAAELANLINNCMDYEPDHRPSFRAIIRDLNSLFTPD
T2 sequence (O60674 536-812 W659A/W777A/F794H): as the sequence (O60674 536-812 V617F/W659A/W777A/F794H) above, with F82V counted along it
T3 sequence (O60674 826-1132): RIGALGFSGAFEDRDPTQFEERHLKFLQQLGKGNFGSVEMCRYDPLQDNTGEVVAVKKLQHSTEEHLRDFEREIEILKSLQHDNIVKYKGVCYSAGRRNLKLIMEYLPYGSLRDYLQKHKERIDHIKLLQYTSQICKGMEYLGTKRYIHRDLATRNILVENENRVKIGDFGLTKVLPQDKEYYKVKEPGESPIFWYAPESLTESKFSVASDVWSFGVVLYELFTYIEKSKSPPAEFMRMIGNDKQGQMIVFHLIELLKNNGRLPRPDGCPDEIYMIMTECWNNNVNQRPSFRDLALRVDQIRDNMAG

`Cn1c(=O)n(C2CCCOC2)c2c3cc(-c4ccc(CN5CCC(S(C)(=O)=O)CC5)cc4)[nH]c3ncc21` (stereo not drawn) [Example 15, 3-Methyl-7-(4-((4-(methylsulfonyl)piperidin-1-yl)methyl)phenyl)-1-(tetrahydro-2H-pyran-3-yl)-3,6-dihydroimidazo[4,5-d]pyrrolo[2,3-b]pyridin-2(1H)-one]: the IC50 in assay [1] was 100 to 500 nM; in assay [2], 100 to 500 nM; in assay [3], 10 to 100 nM.
With `CCN1CCN(c2ccc(-c3cc4c(ncc5c4n(Cc4cnn(C)c4)c(=O)n5C)[nH]3)cc2)CC1` [Example 16, 7-(4-(4-Ethylpiperazin-1-yl)phenyl)-3-methyl-1-((1-methyl-1H-pyrazol-4-yl)methyl)-3,6-dihydroimidazo[4,5-d]pyrrolo[2,3-b]pyridin-2(1H)-one], the IC50 was above 1000 nM in assay [1], above 1000 nM in assay [2] and 500 to 1000 nM in assay [3].
Turning to `CCN1CCN(c2ccc(-c3cc4c(ncc5c4n(CC(=O)N4CCCCC4)c(=O)n5C)[nH]3)cc2)CC1` [Example 17, 7-(4-(4-Ethylpiperazin-1-yl)phenyl)-3-methyl-1-(2-oxo-2-(piperidin-1-yl)ethyl)-3,6-dihydroimidazo[4,5-d]pyrrolo[2,3-b]pyridin-2(1H)-one], the IC50 in assay [1], in assay [2] and in assay [3] was above 1000 nM each time.
As to `CC(C)n1c(=O)n(C)c2cnc3[nH]c(-c4ccc(CN5CCC(S(C)(=O)=O)CC5)cc4)c(-c4ccccc4)c3c21` [Example 18, 1-Isopropyl-3-methyl-7-(4-((4-(methylsulfonyl)piperidin-1-yl)methyl)phenyl)-8-phenyl-3,6-dihydroimidazo[4,5-d]pyrrolo[2,3-b]pyridin-2(1H)-one], the IC50 was at most 10 nM in assay [1], at most 10 nM in assay [2] and 100 to 500 nM in assay [3].
With `COc1ccc(-c2c(-c3ccc(CN4CCC(S(C)(=O)=O)CC4)cc3)[nH]c3ncc4c(c23)n(C2CCCCC2)c(=O)n4C)cc1` [Example 19, 1-Cyclohexyl-8-(4-methoxyphenyl)-3-methyl-7-(4-((4-(methylsulfonyl)piperidin-1-yl)methyl)phenyl)-3,6-dihydroimidazo [4,5-d]pyrrolo[2,3-b]pyridin-2(1H)-one], the values for the IC50 in assay [1], in assay [2] and in assay [3] were at most 10 nM, at most 10 nM and 10 to 100 nM, respectively.
As to `COc1ccc(-c2c(-c3ccc(CN4CCC(S(C)(=O)=O)CC4)cc3)[nH]c3ncc4c(c23)n(CC(C)C)c(=O)n4C)cc1` [Example 20, 1-Isobutyl-8-(4-methoxyphenyl)-3-methyl-7-(4-((4-(methylsulfonyl)piperidin-1-yl)methyl)phenyl)-3,6-dihydroimidazo [4,5-d]pyrrolo[2,3-b]pyridin-2(1H)-one], the IC50 was at most 10 nM in assay [1], at most 10 nM in assay [2] and 100 to 500 nM in assay [3].
For the compound `COc1ccc(-c2c(-c3ccc(CN4CCC(S(C)(=O)=O)CC4)cc3)[nH]c3ncc4c(c23)n(C2CCC2)c(=O)n4C)cc1` [Example 21, 1-Cyclobutyl-8-(4-methoxyphenyl)-3-methyl-7-(4-((4-(methylsulfonyl)piperidin-1-yl)methyl)phenyl)-3,6-dihydroimidazo [4,5-d]pyrrolo [2,3-b]pyridin-2(1H)-one], the IC50 in assay [1] is at most 10 nM; in assay [2], at most 10 nM; in assay [3], 100 to 500 nM.
With `COc1ccc(-c2c(-c3ccc(CN4CCC(S(C)(=O)=O)CC4)cc3)[nH]c3ncc4c(c23)n(-c2ccccc2)c(=O)n4C)cc1` [Example 22, 8-(4-Methoxyphenyl)-3-methyl-7-(4-((4-(methylsulfonyl)piperidin-1-yl)methyl)phenyl)-1-phenyl-3,6-dihydroimidazo[4,5-d]pyrrolo[2,3-b]pyridin-2(1H)-one], the IC50 lay in the range of 10 to 100 nM in assay [1], 10 to 100 nM in assay [2] and 100 to 500 nM in assay [3].
Turning to `COc1ccc(-c2c(-c3ccc(CN4CCC(S(C)(=O)=O)CC4)cc3)[nH]c3ncc4c([nH]c(=O)n4C)c23)cc1` [Example 23, 8-(4-Methoxyphenyl)-3-methyl-7-(4-((4-(methylsulfonyl)piperidin-1-yl)methyl)phenyl)-3,6-dihydroimidazo[4,5-d]pyrrolo[2,3-b]pyridin-2(1H)-one], the IC50 in assay [1] was in the range of 100 to 500 nM; in assay [2], 10 to 100 nM; in assay [3] it was 100 to 500 nM.
On to `COC1CC=C(c2c(-c3ccc(CN4CCC(S(C)(=O)=O)CC4)cc3)[nH]c3ncc4c(c23)n(C(C)(C)C)c(=O)n4C)CC1` (stereo not drawn) [Example 24, 1-(tert-Butyl)-8-(4-methoxycyclohex-1-en-1-yl)-3-methyl-7-(4-((4-(methylsulfonyl)piperidin-1-yl)methyl)phenyl)-3,6-dihydroimidazo[4,5-d]pyrrolo[2,3-b] pyridin-2(1H)-one], for which the IC50 is at most 10 nM in assay [1], at most 10 nM in assay [2] and 500 to 1000 nM in assay [3].
On to `CC(C)n1c(=O)n(C)c2cnc3[nH]c(-c4ccc(CN5CCC(S(C)(=O)=O)CC5)cc4)c(-c4ccc(C#N)cc4)c3c21` [Example 25, 4-(1-Isopropyl-3-methyl-7-(4-((4-(methylsulfonyl)piperidin-1-yl)methyl)phenyl)-2-oxo-1,2,3,6-tetrahydroimidazo [4,5-d]pyrrolo[2,3-b]pyridin-8-yl)benzonitrile], for which the IC50 in assay [1] is at most 10 nM; in assay [2] it was at most 10 nM; in assay [3], 500 to 1000 nM.
`CC(C)n1c(=O)n(C)c2cnc3[nH]c(-c4ccc(CN5CCC(S(C)(=O)=O)CC5)cc4)c(-c4ccc(C5(C#N)CC5)cc4)c3c21` [Example 26, 1-(4-(1-Isopropyl-3-methyl-7-(4-((4-(methylsulfonyl)piperidin-1-yl)methyl)phenyl)-2-oxo-1,2,3,6-tetrahydroimidazo [4,5-d]pyrrolo[2,3-b]pyridin-8-yl)phenyl) cyclopropane-1-carbonitrile]: the IC50 is at most 10 nM in assay [1], at most 10 nM in assay [2] and above 1000 nM in assay [3].
`CC(C)n1c(=O)n(C)c2cnc3[nH]c(-c4ccc(CN5CCC(S(C)(=O)=O)CC5)cc4)c(-c4cnn(Cc5ccc(C(=O)O)cc5)c4)c3c21` [Example 27, 4-((4-(1-Isopropyl-3-methyl-7-(4-((4-(methylsulfonyl)piperidin-1-yl)methyl)phenyl)-2-oxo-1,2,3,6-tetrahydroimidazo [4,5-d]pyrrolo[2,3-b]pyridin-8-yl)-1H-pyrazol-1-yl)methyl)benzoic acid]: the IC50 in assay [1] is at most 10 nM; in assay [2], at most 10 nM; in assay [3] it was 100 to 500 nM.
